Data: US20160257697A1, “THIOPHENE-SUBSTITUTED TETRACYCLIC COMPOUNDS AND METHODS OFUSE THEREOF FOR THE TREATMENT OF VIRAL DISEASES” (priority 2013, published 2016)
pIC50: −log10 of the molar value. Where two headings read alike, the source gives them in different places.

Tests used:
Experiment in all cases: microbe, parasite or virus in culture
Type in all cases: cell-based, Hepatitis C virus (HCV)
HCV replicon 1A = details: Replicon Assay A
Procedure: (§1) To measure cell-based anti-HCV activity of compounds of the present invention, two complimentary assays were employed using various replicons. In the first assay (“Replicon Assay A”), replicon cells were seeded at 2000 cells/well in 384-well 384-well flat bottom tissue culture treated clear bottom plate (Corning 3707) in the presence of the test compound. […] The final concentration of DMSO was 0.5%. Fetal bovine serum was 5%, in the assay media. Cells were harvested on day 3 by removing media and washing the cells with a suitable wash buffer. The cells are lysed with the addition of 1× Qiagen lysis buffer (Cat #1062731). The replicon RNA level was measured using real time PCR (TaqMan® EZ RT-PCR, Applied Biosystems 403028) with the following primers and probes: […]
(§2) Cyclophilin RNA was used as endogenous control and was amplified in the same reaction as NS5B (multiplex PCR). The real-time RT-PCR reactions were run on ABI PRISM 7900HT Sequence Detection System using the following program: 50° C. for 2 minutes, 60° C. for 30 minutes, 95° C. for 5 minutes, 40 cycles of 94° C. for 20 sec, 55° C. for 1 minutes.
(§3) The amount of HCV replicon RNA per cell is quantified using a linear regression curve for a known nanogram (ng) amount of HCV replicon total RNA. This is established by plotting the Cycle Threshold values (Ct) from the Neo probe and primer set versus the log (ng) for each HCV replicon total RNA standard. The amount of HCV RNA for each replicon sample is calculated by taking the sample's Ct value, minus the line intercept, divided by the slope of the line. Similarly, the amount of Cyclophilin mRNA per cell is also quantified using a linear regression curve for a known nanogram (ng) amount of HCV replicon total RNA. Again, this is established by plotting the Cycle Threshold values (Ct) from the Cyclophilin probe and primer set versus the log (ng) for each HCV replicon total RNA standard.
(§4) Data for replicons 1A, 1AY93H and 2B were obtained using Replicon Assay A and data for replicons 1AQ30D and 1B were obtained using Replicon Assay B.

HCV replicon 2B = details: Replicon Assay A; for pIC50: read-out: 2B IC50
Procedure: as §1, §2, §3, §4

HCV replicon 1AY93H = details: Replicon Assay A; for pIC50: read-out: 1A Y93H IC50
Procedure: as §1, §2, §3, §4

[1] = Hepatitis C virus, HCV replicon 1A

SMILES: COC(=O)NC(C(=O)N1CCC[C@H]1c1ncc(-c2ccc3c(c2)cc2n3C(c3ccc(C4CC4)s3)Oc3cc(-c4cnc([C@@H]5CCCN5C(=O)[C@@H](NC(=O)OC)C(C)C)[nH]4)cc(F)c3-2)[nH]1)C1CCOC2(CC2)C1 (single isomer, unassigned) [Compound 178]
- pIC50 (HCV replicon 1A; replicon 1A): 11.77
- pIC50 (HCV replicon 2B; replicon 2B): 8.47

SMILES: COC(=O)N[C@H](C(=O)N1CCC[C@H]1c1ncc(-c2cc(F)c3c(c2)OC(c2ccc(C4CC4(F)F)s2)n2c-3cc3cc(-c4cnc([C@@H]5CCCN5C(=O)[C@@H](NC(=O)OC)C(C)C)[nH]4)ccc32)[nH]1)C(C)C (single isomer, unassigned) [Compound 118]
- pIC50 (HCV replicon 1A; Hepatitis C virus, replicon 1A): 11.92
- pIC50 (HCV replicon 2B; replicon 2B): 9.01

SMILES: COCc1ccc(C2Oc3cc(-c4cnc([C@@H]5CCCN5C(=O)[C@@H](NC(=O)OC)C(C)C)[nH]4)cc(F)c3-c3cc4cc(-c5cnc([C@@H]6CCCN6C(=O)[C@@H](NC(=O)OC)[C@@H]6C[C@@H](C)O[C@@H](C)C6)[nH]5)ccc4n32)s1 (single isomer, unassigned) [Compound 534]
- pIC50 (HCV replicon 1A; HCV replicon 1A): 11.16
- pIC50 (HCV replicon 2B; HCV replicon 2B): 10.70

SMILES: COC(=O)N[C@H](C(=O)N1CCC[C@H]1c1ncc(-c2cc(F)c3c(c2)OC(c2scc4c2OCCO4)n2c-3cc3cc(-c4cnc([C@@H]5CCCN5C(=O)[C@@H](NC(=O)OC)C(C)C)[nH]4)ccc32)[nH]1)C(C)C (single isomer, unassigned) [Compound 525]
- pIC50 (HCV replicon 1AY93H; HCV replicon 1A Y93H): 7.82
- pIC50 (HCV replicon 2B; HCV replicon 2B): 8.50

SMILES: COC(=O)N[C@H](C(=O)N1CCC[C@H]1c1ncc(-c2cc(F)c3c(c2)OC(c2ccc(C4CCCCC4)s2)n2c-3cc3cc(-c4cnc([C@@H]5CCCN5C(=O)[C@@H](NC(=O)OC)C(C)C)[nH]4)ccc32)[nH]1)C(C)C (single isomer, unassigned) [Compound 528]
- pIC50 (HCV replicon 1A; [1]): 11.05
- pIC50 (HCV replicon 2B; HCV replicon 2B): 8.06

SMILES: COC(=O)N[C@H](C(=O)N1CCC[C@H]1c1ncc(-c2cc(F)c3c(c2)OC(c2cc(C)c(C)s2)n2c-3cc3cc(-c4cnc([C@@H]5C[C@H]6C[C@H]6N5C(=O)[C@@H](NC(=O)OC)C(C)C)[nH]4)ccc32)[nH]1)C(C)C (single isomer, unassigned) [Compound 509]
- pIC50 (HCV replicon 1AY93H; HCV replicon 1A Y93H): 8.21
- pIC50 (HCV replicon 2B; HCV replicon 2B): 8.17

SMILES: CCc1ccc(C2Oc3cc(-c4cnc([C@@H]5CCCN5C(=O)[C@@H](NC(=O)OC)C(C)C)[nH]4)cc(F)c3-c3cc4cc(-c5cnc([C@@H]6C[C@@H](F)CN6C(=O)C(NC(=O)OC)C6CCOC(C)(C)C6)[nH]5)ccc4n32)s1 (single isomer, unassigned) [Compound 255]
- pIC50 (HCV replicon 1AY93H; replicon 1AY93H): 10.08
- pIC50 (HCV replicon 2B; replicon 2B): 8.44

SMILES: COC(=O)N[C@H](C(=O)N1CCC[C@H]1c1ncc(-c2cc(F)c3c(c2)OC(c2ccc(C(CF)CF)s2)n2c-3cc3cc(-c4cnc([C@@H]5CCCN5C(=O)[C@@H](NC(=O)OC)C(C)C)[nH]4)ccc32)[nH]1)C(C)C (single isomer, unassigned) [Compound 121]
- pIC50 (HCV replicon 1A; replicon 1A): 11.92
- pIC50 (HCV replicon 2B; replicon 2B): 9.77

SMILES: COC(=O)NC(C(=O)N1CCC[C@H]1c1ncc(-c2ccc3c(c2)cc2n3C(c3ccc(C4CC4)s3)Oc3cc(-c4cnc([C@@H]5CCCN5C(=O)[C@@H](NC(=O)OC)C(C)C)[nH]4)cc(F)c3-2)[nH]1)C1CCO[C@@H](C)C1 (single isomer, unassigned) [Compound 401]
- pIC50 (HCV replicon 1A; replicon 1A): 11.74
- pIC50 (HCV replicon 2B; replicon 2B): 11.19

SMILES: COC(=O)N[C@H](C(=O)N1CCC[C@H]1c1ncc(-c2cc(F)c3c(c2)OC(c2cc(C)c(C)s2)n2c-3cc3cc(-c4cnc([C@@H]5C[C@H]6C[C@H]6N5C(=O)[C@@H](NC(=O)OC)C(C)C)[nH]4)ccc32)[nH]1)C(C)C (single isomer, unassigned) [Compound 507]
- pIC50 (HCV replicon 1AY93H; HCV replicon 1A Y93H): 10.05
- pIC50 (HCV replicon 2B; HCV replicon 2B): 8.73

SMILES: COC(=O)NC(C(=O)N1CCC[C@H]1c1ncc(-c2ccc3c(c2)cc2n3C(c3ccc(C4CC4)s3)Oc3cc(-c4cnc([C@@H]5CCCN5C(=O)[C@@H](NC(=O)OC)C(C)C)[nH]4)cc(F)c3-2)[nH]1)C1CCOC2(CC2)C1 (single isomer, unassigned) [Compound 177]
- pIC50 (HCV replicon 1A; replicon 1A): 11.85
- pIC50 (HCV replicon 2B; replicon 2B): 10.80

SMILES: COC(=O)N[C@H](C(=O)N1CCC[C@H]1c1ncc(-c2cc(F)c3c(c2)OC(c2ccc(C(C)C(F)(F)F)s2)n2c-3cc3cc(-c4cnc([C@@H]5CCCN5C(=O)[C@@H](NC(=O)OC)C(C)C)[nH]4)ccc32)[nH]1)C(C)C (single isomer, unassigned) [Compound 133]
- pIC50 (HCV replicon 1A; replicon 1A): 11.70
- pIC50 (HCV replicon 2B; replicon 2B): 9.82

SMILES: COCc1ccc(C2Oc3cc(-c4cnc([C@@H]5CCCN5C(=O)[C@@H](NC(=O)OC)C(C)C)[nH]4)cc(F)c3-c3cc4cc(-c5c[nH]c([C@@H]6CCCN6C(=O)[C@@H](NC(=O)OC)C(C)C)n5)ccc4n32)s1 (single isomer, unassigned) [Compound 512]
- pIC50 (HCV replicon 1A; HCV replicon 1A): 11.55
- pIC50 (HCV replicon 2B; HCV replicon 2B): 9.82

SMILES: COC(=O)N[C@H](C(=O)N1CCC[C@H]1c1ncc(-c2cc(F)c3c(c2)OC(c2ccc(CC4CC4)s2)n2c-3cc3cc(-c4cnc([C@@H]5CCCN5C(=O)[C@@H](NC(=O)OC)C(C)C)[nH]4)ccc32)[nH]1)C(C)C (single isomer, unassigned) [Compound 53]
- IC50 (HCV replicon 1AY93H; Hepatitis C virus, read-out: 1A Y93H IC50 (nM), replicon 1AY93H): 1.87 nM
- IC50 (HCV replicon 2B; Hepatitis C virus, read-out: 2B IC50 (nM), replicon 2B): 1.95 nM

SMILES: COC(=O)NC(C(=O)N1CCC[C@H]1c1ncc(-c2ccc3c(c2)cc2n3C(c3ccc(C4CC4)s3)Oc3cc(-c4cnc([C@@H]5CCCN5C(=O)[C@@H](NC(=O)OC)C(C)C)[nH]4)cc(F)c3-2)[nH]1)C1CCOC2(CC2)C1 (single isomer, unassigned) [Compound 176]
- pIC50 (HCV replicon 1A; Hepatitis C virus, replicon 1A): 11.96
- pIC50 (HCV replicon 2B; replicon 2B): 10.34

SMILES: CCc1ccc(C2Oc3cc(-c4cnc([C@@H]5CCCN5C(=O)[C@@H](NC(=O)OC)C(C)C)[nH]4)ccc3-c3c(F)c4cc(-c5cnc([C@@H]6CCCN6C(=O)[C@@H](NC(=O)OC)C(C)C)[nH]5)ccc4n32)s1 (single isomer, unassigned) [Compound 601]
- pIC50 (HCV replicon 1AY93H; HCV replicon 1A Y93H): 8.40
- pIC50 (HCV replicon 2B; HCV replicon 2B): 8.91

SMILES: COC(=O)NC(C(=O)N1[C@@H]2C[C@@H]2C[C@H]1c1ncc(-c2ccc3c(c2)cc2n3C(c3ccc(C4CC4)s3)Oc3cc(-c4cnc([C@@H]5CCCN5C(=O)[C@@H](NC(=O)OC)C(C)C)[nH]4)cc(F)c3-2)[nH]1)C1CCOC(C)(C)C1 (single isomer, unassigned) [Compound 277]
- pIC50 (HCV replicon 1AY93H; replicon 1AY93H): 9.89
- pIC50 (HCV replicon 2B; replicon 2B): 9.24

SMILES: COC(=O)NC(C(=O)N1CCC[C@H]1c1ncc(-c2ccc3c(c2)cc2n3C(c3ccc(C4CC4)s3)Oc3cc(-c4cnc([C@@H]5CCCN5C(=O)[C@@H](NC(=O)OC)C(C)C)[nH]4)cc(F)c3-2)[nH]1)C1CCO[C@@H](C)C1 (single isomer, unassigned) [Compound 402]
- pIC50 (HCV replicon 1A; replicon 1A): 11.47
- pIC50 (HCV replicon 2B; replicon 2B): 11.27

SMILES: COC(=O)NC(C(=O)N1CCC[C@H]1c1ncc(-c2cc(F)c3c(c2)OC(c2ccc(C4CC4)s2)n2c-3cc3cc(-c4cnc([C@@H]5C[C@H]6C[C@H]6N5C(=O)[C@@H](NC(=O)OC)C(C)C)[nH]4)ccc32)[nH]1)C(C)(C)F (single isomer, unassigned) [Compound 99]
- pIC50 (HCV replicon 1AY93H; replicon 1AY93H): 9.28
- pIC50 (HCV replicon 2B; replicon 2B): 8.81

SMILES: COC(=O)NC(C(=O)N1CCC[C@H]1c1ncc(-c2ccc3c(c2)cc2n3C(c3ccc(C4CC4)s3)Oc3cc(-c4cnc([C@@H]5C[C@H]6C[C@H]6N5C(=O)[C@@H](NC(=O)OC)C(C)C)[nH]4)cc(F)c3-2)[nH]1)C1C[C@@H](C)O[C@@H](C)C1 (single isomer, unassigned) [Compound 536]
- pIC50 (HCV replicon 1A; [1]): 11.57
- pIC50 (HCV replicon 2B; HCV replicon 2B): 10.66

SMILES: COC(=O)N[C@H](C(=O)N1CCC[C@H]1c1ncc(-c2cc(F)c3c(c2)OC(c2sc(C4CC4)cc2F)n2c-3cc3cc(-c4cnc([C@@H]5CCCN5C(=O)[C@@H](NC(=O)OC)C(C)C)[nH]4)ccc32)[nH]1)C(C)C (single isomer, unassigned) [Compound 66]
- pIC50 (HCV replicon 1AY93H; replicon 1AY93H): 9.89
- pIC50 (HCV replicon 2B; replicon 2B): 9.64

SMILES: COC(=O)NC(C(=O)N1CCC[C@H]1c1ncc(-c2ccc3c(c2)cc2n3C(c3ccc(C4CC4)s3)Oc3cc(-c4cnc([C@@H]5CCCN5C(=O)[C@@H](NC(=O)OC)C(C)C)[nH]4)cc(F)c3-2)[nH]1)C1CCOC2(CC2)C1 (single isomer, unassigned) [Compound 179]
- pIC50 (HCV replicon 1A; replicon 1A): 11.92
- pIC50 (HCV replicon 2B; replicon 2B): 8.33

SMILES: COC(=O)N[C@H](C(=O)N1CCC[C@H]1c1ncc(-c2cc(F)c3c(c2)OC(c2ccc(C(C)CF)s2)n2c-3cc3cc(-c4cnc([C@@H]5CCCN5C(=O)[C@@H](NC(=O)OC)C(C)C)[nH]4)ccc32)[nH]1)C(C)C (single isomer, unassigned) [Compound 333]
- pIC50 (HCV replicon 1A; replicon 1A): 12.00
- pIC50 (HCV replicon 2B; replicon 2B): 10.50

SMILES: [2H]C(C)(C)C(NC(=O)OC)C(=O)N1CCC[C@H]1c1ncc(-c2cc(F)c3c(c2)OC(c2ccc(C4CC4)s2)n2c-3cc3cc(-c4cnc([C@@H]5CCCN5C(=O)[C@@H](NC(=O)OC)C(C)C)[nH]4)ccc32)[nH]1 (single isomer, unassigned) [Compound 30]
- pIC50 (HCV replicon 1A; replicon 1A): 10.29
- pIC50 (HCV replicon 2B; replicon 2B): 7.48
